From patent US12410187B2, “Fused tricyclic compounds useful as anticancer agents” (ASTRAZENECA AB, priority 2019, dated 2025)
Like-named read-outs stand apart in the source and are kept apart here.

Target: T1, KRasG12C (Homo sapiens, UniProt P01116, G12C)
T1 construct: biotin (biotinylated); made in house
Assay: KRasG12C functional assay (HTRF/FRET nucleotide exchange and Raf RBD binding)
Format: biochemical
Conditions: samples incubated for 4 hrs, FRET readout, single experiment or average of two or more
Procedure: All enzyme and substrate solutions were prepared in assay buffer containing 20 mM HEPES (pH 7.5), 5 mM MgCl2, 150 mM NaCl, and 0.01% Tween 20. […] In a separate mix 20 nM GST-Raf Ras binding domain (GST-Raf RBD, purified in house) and 4 μg/ml anti-GST XL665 antibody (Cisbio) was prepared in assay buffer containing 50 mM Potassium Fluoride and 0.05 mg/ml BSA and equilibrated for 4 hours before adding 0.6 μM Guanosine 5′-[γ-thio]triphosphate (GTPγS, Sigma) and 0.08 μM SOS (purified in house). 5 μl of the GST-RAF RBD mix was then dispensed into each well of the assay plate. […] This is detected simultaneously via the specific binding interaction between active GTPγS KRas^G12C with GST-Raf RBD which brings the europium and XL665 into close proximity enabling an increased FRET signal to be detected on a Pherastar (BMG) plate reader equipped with the HTRF filter module. […] IC50 values were calculated from normalised dose-response response FRET data curve fitted in Genedata screener (Basel, Switzerland).

[1] = GDP loaded biotinylated KRasG12C, read-out: KRasG12C functional assay IC50
[2] = KRasG12C functional assay IC50, GDP loaded biotinylated KRasG12C

T1 sequence (P01116 1-188 isoform P01116-2 G12C): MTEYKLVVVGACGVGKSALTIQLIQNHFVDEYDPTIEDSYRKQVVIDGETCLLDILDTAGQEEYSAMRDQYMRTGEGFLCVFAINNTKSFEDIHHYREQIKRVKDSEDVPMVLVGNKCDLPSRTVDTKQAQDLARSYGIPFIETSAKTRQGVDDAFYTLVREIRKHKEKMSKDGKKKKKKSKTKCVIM

IC50 [1] [nM]	IC50 [2] [nM]	Compound
42700	–	C=CC(=O)N1CCN2Cc3cc(F)c(-c4c(O)cccc4C(F)(F)F)c(F)c3OC[C@H]2C1 (single isomer, unassigned) [Example 48]
123	–	C=CC(=O)N1CCN2Cc3cc(F)c(-c4c(O)ccc(F)c4F)c(Cl)c3OC[C@H]2C1 (single isomer, unassigned) [Example 39]
66	–	C=CC(=O)N1CCN2Cc3c(O)c(Cl)c(-c4c(O)cccc4F)c(Cl)c3OC[C@H]2C1 (single isomer, unassigned) [Example 13]
2580	–	C=CC(=O)N1CCN2Cc3cc(C#N)c(-c4c(O)cccc4F)c(Cl)c3OC[C@H]2C1 (single isomer, unassigned) [Example 22]
–	937	C#Cc1cc2c(c(F)c1-c1c(O)cccc1Cl)OC[C@H]1CN(C(=O)C=C)CCN1C2 (single isomer, unassigned) [Example 77]
542	–	C=CC(=O)N1CCN2Cc3cc(F)c(-c4c(O)cccc4CC)c(F)c3OC[C@H]2C1 (single isomer, unassigned) [Example 51]
13	–	C#Cc1nc2c(c(Cl)c1-c1c(O)cccc1Cl)OC[C@@H]1CN(C(=O)C=C)CCN1C2 (single isomer, unassigned) [Example 88]
361	–	C=CC(=O)N1CCN2Cc3c(-n4cccn4)cc(-c4c(O)cccc4F)c(Cl)c3OC[C@H]2C1 [Example 17, 1-[(12aR)-10-Chloro-9-(2-fluoro-6-hydroxyphenyl)-7-(1H-pyrazol-1-yl)-3,4,12,12a-tetrahydro-6H-pyrazino[2,1-c][1,4]benzoxazepin-2(1H)-yl]prop-2-en-1-one]
25200	–	C=CC(=O)N1CCN2C(=O)c3cc(F)c(-c4c(O)cccc4F)c(Cl)c3OC[C@H]2C1 (single isomer, unassigned) [Example 12]
430	–	C=CC(=O)N1CCN2Cc3c(C#N)cc(-c4c(O)cccc4F)c(Cl)c3OC[C@H]2C1 [Example 16, (12aR)-10-Chloro-9-(2-fluoro-6-hydroxyphenyl)-2-(prop-2-enoyl)-1,2,3,4,12,12a-hexahydro-6H-pyrazino[2,1-c][1,4]benzoxazepine-7-carbonitrile]
23000	–	C=CC(=O)N1CCN2Cc3c(c(Cl)c(-c4c(O)cccc4F)c4cnn(C)c34)OC[C@H]2C1 (single isomer, unassigned) [Example 73]
28	–	C=CC(=O)N1CCN2Cc3cc(C#CCN(C)C)c(-c4c(O)cccc4Cl)c(F)c3OC[C@H]2C1 (single isomer, unassigned) [Example 102]
43	–	C=CC(=O)N1CCN2Cc3cc(OCCOC)c(-c4c(O)cccc4Cl)c(Cl)c3OC[C@H]2C1 (single isomer, unassigned) [Example 106]
146	–	C=CC(=O)N1CCN2Cc3cc(F)c(-c4c(C)ccc5[nH]cnc45)c(Cl)c3OC[C@H]2C1 (single isomer, unassigned) [Example 19]
27	–	C=CC(=O)N1CCN2Cc3cc(OCc4ccncc4)c(-c4c(O)cccc4Cl)c(F)c3OC[C@H]2C1 (single isomer, unassigned) [Example 104]
21000	–	C=CC(=O)N1CCN2Cc3c(c(Cl)c(-c4c(O)cccc4F)n(C)c3=O)OC[C@H]2C1 (single isomer, unassigned) [Example 66]
103	–	C=CC(=O)N1CCN2C(=O)c3c(O)cc(-c4c(O)cccc4F)c(Cl)c3OC[C@H]2C1 [Example 6, (12aR)-10-chloro-9-(2-fluoro-6-hydroxyphenyl)-7-hydroxy-2-(prop-2-enoyl)-1,2,3,4,12,12a-hexahydro-6H-pyrazino[2,1-c][1,4]benzoxazepin-6-one]
98200	–	C=CC(=O)N1CCN2C(=O)c3ccc(-c4c(C)ccc5[nH]ncc45)c(Cl)c3N(C)C[C@H]2C1 (single isomer, unassigned) [Example 36]
51	–	C#Cc1nc(-c2c(O)cccc2Cl)c(Cl)c2c1CN1CCN(C(=O)C=C)C[C@@H]1CO2 (single isomer, unassigned) [Example 120]

IC50 [1] [nM]	IC50 [2] [nM]	Compound
790	–	C=CC(=O)N1CCN2Cc3c(Cl)nc(-c4c(O)cccc4F)c(Cl)c3OC[C@H]2C1 [Example 68, 1-[(6aR)-1,4-Dichloro-3-(2-fluoro-6-hydroxyphenyl)-6a,7,9,10-tetrahydro-12H-pyrazino[2,1-c]pyrido[3,4-f][1,4]oxazepin-8(6H)-yl]prop-2-en-1-one]
31	–	C=CC(=O)N1CCN2Cc3cc(C#N)c(-c4c(O)cccc4Cl)c(Cl)c3OC[C@H]2C1 (single isomer, unassigned) [Example 57]
83	–	C=CC(=O)N1CCN2Cc3cc(COC)c(-c4c(O)cccc4Cl)c(Cl)c3OC[C@H]2C1 [Example 114, 1-[(12aR)-10-Chloro-9-(2-chloro-6-hydroxyphenyl)-8-(methoxymethyl)-3,4,12,12a-tetrahydro-6H-pyrazino[2,1-c][1,4]benzoxazepin-2(1H)-yl]prop-2-en-1-one]
64800	–	C=CC(=O)N1CCN2C(=O)c3ccc(-c4c(C)ccc5[nH]ncc45)c(Cl)c3NC[C@H]2C1 (single isomer, unassigned) [Example 32]
64900	–	C=CC(=O)N1CCN2Cc3cc(F)c(-c4c(O)cccc4Cl)c(Cl)c3OC[C@H]2C1 (single isomer, unassigned) [Example 34]
–	4500	C=CC(=O)N1CCN2C(=O)c3ccc(-c4c(C)ccc5[nH]ncc45)c(Cl)c3OC[C@@H]2C1 (single isomer, unassigned) [Example 2]
53	–	C=CC(=O)N1CCN2Cc3c(OCCN(C)C)cc(-c4c(O)cccc4Cl)c(F)c3OC[C@H]2C1 (single isomer, unassigned) [Example 116]
40100	–	C=CC(=O)N1CCN2Cc3cc(F)c(-c4c(O)ccc(F)c4F)c(Cl)c3OC[C@H]2C1 (single isomer, unassigned) [Example 38]
–	14	C=CC(=O)N1CCN2Cc3cc(OC(F)F)c(-c4c(O)cccc4Cl)c(F)c3OC[C@H]2C1 (single isomer, unassigned) [Example 94]
15900	–	C=CC(=O)N1CCN2Cc3cc(Cl)c(-c4c(C)cccc4O)c(F)c3OC[C@H]2C1 (single isomer, unassigned) [Example 60]
810	–	C=CC(=O)N1CCN2Cc3c(c(Cl)c(-c4c(O)cccc4F)n(C)c3=O)OC[C@H]2C1 (single isomer, unassigned) [Example 67]
28700	–	C=CC(=O)N1CCN2Cc3cc(F)c(-c4c(C)ccc5[nH]cnc45)c(Cl)c3OC[C@H]2C1 (single isomer, unassigned) [Example 18]
135	–	C=CC(=O)N1CCN2Cc3c(c(Cl)c(-c4c(O)cccc4F)c4cn(C)nc34)OC[C@H]2C1 (single isomer, unassigned) [Example 74]
19000	–	C=CC(=O)N1CCN2Cc3c(c(Cl)c(-c4c(O)cccc4F)n4cnnc34)OC[C@H]2C1 (single isomer, unassigned) [Example 70]
64	–	C=CC(=O)N1CCN2Cc3cc(OCCN4CCCCC4)c(-c4c(O)cccc4Cl)c(F)c3OC[C@H]2C1 (single isomer, unassigned) [Example 108]
43	–	C=CC(=O)N1CCN2C(=O)c3cc(Cl)c(-c4c(O)cccc4F)c(Cl)c3OC[C@H]2C1 (single isomer, unassigned) [Example 20]
99300	–	C=CC(=O)N1CCN2Cc3cc(F)c(-c4c(O)cccc4CC)c(F)c3OC[C@H]2C1 (single isomer, unassigned) [Example 50]
–	26000	C=CC(=O)N1CCN2Cc3ccc(-c4c(C)ccc5[nH]ncc45)c(Cl)c3OC[C@H]2C1 (single isomer, unassigned) [Example 9]
